Data published in patent publication US20230331803A1, “CO-AGONISTS OF THE GLP-1 AND AMYLIN RECEPTORS” (priority 2020, published 2023).
Where two headings read alike, the source gives them in different places. Starred links: 1 amine or outer side, 2 acyl side, 3 side chain; linkers in the order of their positions; H or OH if unused. Non-standard residues stand in square brackets, D forms with d. Groups on a side chain read outwards from the residue. *: point of attachment. Decanoyl(10-(4-HOOC-PhO)) = O=C(O)c1ccc(OCCCCCCCCCC(=O)*)cc1; C20 diacid = O=C(O)CCCCCCCCCCCCCCCCCCC(=O)*; C18 diacid = O=C(O)CCCCCCCCCCCCCCCCC(=O)*; C16 diacid = O=C(O)CCCCCCCCCCCCCCC(=O)*; γGlu = O=C(O)[C@H](CCC(=O)[*:2])N[*:1]; εLys = N[C@@H](CCCCN[*:1])C(=O)[*:2]; AEEA = NCCOCCOCC(=O)O; Aib = CC(C)(N)C(=O)O

Experiments:
[1] = molecular target: T1, human GLP-1 receptor (Homo sapiens, UniProt P43220); assay: Human GLP-1 receptor in vitro potency assay (CRE-luciferase reporter, BHK cells); format: cell-based
T1 construct: expressed in transfected cells; host or cells: BHK (Baby Hamster Kidney) cells, clone BHK 467-12A KZ-10, stably transfected, with CRE-luciferase reporter
Experimental: It is thus possible to measure GLP-1 receptor activity using a CRE-luciferase reporter gene introduced into Baby Hamster Kidney (BHK) cells co-expressing the GLP-1 receptor.
Cells were aliquoted and stored at -180° C. until use.
Plates were sealed and incubated at room temperature with gentle shaking for 30 minutes while protected from light. Luminescence was detected on a luminescence plate reader e.g. a Synergy 2 (BioTek).

[2] = molecular target: T2, human amylin receptor (hAmyR3) (Homo sapiens, UniProt O60896+P30988); assay: Human amylin receptor in vitro potency assay (CRE-luciferase reporter, BHK cells); format: cell-based;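 further: BHK cells expressing human calcitonin receptor plus RAMP3 (amylin-3 receptor) with a CRE-luciferase reporter, agonist activity read as luminescence from cAMP-driven transcription, 7-point serial dilutions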
T2 construct: host or cells: BHK cells (Hollex-1 line: human calcitonin receptor (a) + CRE-Luc), further transfected with human RAMP3

[3] = Table 4a, BHK cells expressing human GLP-1R, CRE-Luc, 3 hours, read-out: Human GLP-1R potency [EC50 (pM)]
[4] = Table 4a, BHK hAmyR3/CRE-Luc cells, 3 hours, read-out: Human AmyR3 potency [EC50 (pM)]

T2 sequence (P30988 25-474): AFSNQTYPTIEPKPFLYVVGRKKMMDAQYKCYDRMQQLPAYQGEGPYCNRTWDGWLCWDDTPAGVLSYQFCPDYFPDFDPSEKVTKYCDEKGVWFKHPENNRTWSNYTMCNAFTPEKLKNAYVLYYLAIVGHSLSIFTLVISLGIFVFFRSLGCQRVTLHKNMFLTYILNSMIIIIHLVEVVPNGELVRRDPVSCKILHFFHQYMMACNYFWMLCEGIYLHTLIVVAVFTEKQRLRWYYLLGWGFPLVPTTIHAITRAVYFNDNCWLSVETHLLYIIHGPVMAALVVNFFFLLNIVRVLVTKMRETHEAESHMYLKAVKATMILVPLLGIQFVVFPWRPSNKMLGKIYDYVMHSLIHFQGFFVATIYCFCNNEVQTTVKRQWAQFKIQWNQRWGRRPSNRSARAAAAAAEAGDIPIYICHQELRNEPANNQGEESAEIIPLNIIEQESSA
T2 sequence (O60896 24-148): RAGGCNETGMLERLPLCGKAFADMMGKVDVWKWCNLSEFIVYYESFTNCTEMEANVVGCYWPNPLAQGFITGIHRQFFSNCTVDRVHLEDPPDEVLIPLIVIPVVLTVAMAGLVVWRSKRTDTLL
T1 sequence (P43220 24-463): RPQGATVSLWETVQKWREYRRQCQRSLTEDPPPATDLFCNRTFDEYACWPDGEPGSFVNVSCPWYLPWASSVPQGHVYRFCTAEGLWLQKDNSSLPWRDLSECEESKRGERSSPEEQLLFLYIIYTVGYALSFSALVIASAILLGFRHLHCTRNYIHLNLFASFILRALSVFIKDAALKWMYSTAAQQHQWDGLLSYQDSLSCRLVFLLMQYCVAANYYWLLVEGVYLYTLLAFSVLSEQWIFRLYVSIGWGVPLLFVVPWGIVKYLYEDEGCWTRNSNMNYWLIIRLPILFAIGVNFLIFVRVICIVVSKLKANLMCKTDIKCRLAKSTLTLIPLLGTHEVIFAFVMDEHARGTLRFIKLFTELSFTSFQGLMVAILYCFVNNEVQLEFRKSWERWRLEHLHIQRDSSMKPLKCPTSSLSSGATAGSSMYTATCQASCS

EC50 [1, 3] | EC50 [2, 4] | Substance | EC50 [1] | EC50 [2]
4.6 pM | 15.2 pM | HWEGTFTSDVSSYLEEK([AEEA-AEEA-γGlu-C18 diacid])AAREFIEWLVRGRGEASELSTAALGRLSAELHELATLPRTETGSGSP-NH2 [Compound 0271] | – | –
3.1 pM | 16.2 pM | HWEGTFTSDVSSYLEEK([AEEA-AEEA-γGlu-C20 diacid])AAREFIEWLVRGRGEASELSTAALGRLSAELHELATLPRTETGSGSP-NH2 [Compound 0473] | – | –
17 pM | 9.2 pM | HWEGTFTSDVSSYLEEQAAREFIAWLVRGRK([AEEA-AEEA-γGlu-C18 diacid])GGGGEASELSTAALGRLSAELHELATLPRTETGSGSP-NH2 [Compound 0648] | – | –
– | – | HWEGTFTSDVSSYLEEQAARK([AEEA-AEEA-γGlu-Decanoyl(10-(4-HOOC-PhO))])FIEWLVRGK([AEEA-AEEA-γGlu-Decanoyl(10-(4-HOOC-PhO))])GEGEASELSTAALGRLSAELHELATLPRTETGSGSP-NH2 [Compound 0099] | 9.6 pM | 44.9 pM
– | – | HWEGTFTSDVSSYLEEQAARK([AEEA-AEEA-γGlu-Decanoyl(10-(4-HOOC-PhO))])FIEWLVRGK([AEEA-AEEA-γGlu-Decanoyl(10-(4-HOOC-PhO))])GEGGGGGGGGGEASELSTAALGRLSAELHELATLPRTETGSGSP-NH2 [Compound 0101] | 7.1 pM | 10.2 pM
1.7 pM | 46.4 pM | H[Aib]EGTFTSDVSSYLEEQAARK([AEEA-AEEA-γGlu-C16 diacid])FIAWLVRGK([AEEA-AEEA-γGlu-C16 diacid])GGGEASELSTAALGRLSAELHELATLPRTETGSGSP-NH2 [Compound 0076] | – | –
7.1 pM | 63.9 pM | H[Aib]EGTFTSDVSSYLEEQAARK([AEEA-AEEA-γGlu-C18 diacid])FIAWLVRGK([AEEA-AEEA-γGlu-C18 diacid])GGEASELSTAALGRLSAELHELATLPRTETGSGSP-NH2 [Compound 0127] | – | –
3.2 pM | 19.1 pM | H[Aib]EGTFTSDVSSYLEEQAARK([AEEA-AEEA-γGlu-C18 diacid])FIAWLVRGK([AEEA-AEEA-γGlu-C18 diacid])GGGGGGGGGEASELSTAALGRLSAELHELATLPRTETGSGSP-NH2 [Compound 0109] | – | –
– | – | H[Aib]EGTFTSDVSSYLEEQAARK([εLys-AEEA-AEEA-γGlu-C18 diacid])FIAWLVRGK([εLys-AEEA-AEEA-γGlu-C18 diacid])GGGGGGGGGEASELSTAALGRLSAELHELATLPRTETGSGSP-NH2 [Compound 0110] | 2.7 pM | 40.7 pM
